Measured values from ChEMBL document CHEMBL5532675, “Discovery of 4-Ethoxy-6-chloro-5-azaindazoles as Novel PDE4 Inhibitors for the Treatment of Alcohol Use Disorder and Alcoholic Liver Diseases” (J Med Chem, 2024).
Active and inactive are the calls of the source. No cut-off for these calls is given here.

Legend:
[1] = target: 3',5'-cyclic-AMP phosphodiesterase 4B (Homo sapiens, UniProt Q07343); assay: Inhibition of PDE4B1 (unknown origin) using FAM-cyclic-3',5'-AMP as substrate incubated for 1 hrs by fluorescence polarization based IMAP assay
[2] = target: T1, 3',5'-cyclic-AMP phosphodiesterase 4D (Homo sapiens, UniProt Q08499); assay: Inhibition of PDE4D7 (unknown origin) using FAM-cyclic-3',5'-AMP as substrate at 100 nM incubated for 1 hrs by fluorescence polarization based IMAP assay relative to control
[3] = target: T1, 3',5'-cyclic-AMP phosphodiesterase 4D; assay: Inhibition of PDE4D7 (unknown origin) using FAM-cyclic-3',5'-AMP as substrate at 10 nM incubated for 1 hrs by fluorescence polarization based IMAP assay relative to control
[4] = Chemical stability of compound in aqueous solution at pH <6 measured after 48 hrs; format: physicochemical; details: buffer
[5] = Acute toxicity in C57BL/6J mouse assessed as poisoning symptoms at 1 g/Kg, po administered for 14 days; format: organism-based; details: in vivo, 1000 mg/kg, 336 h, time 14 day
[6] = Selectivity ratio for inhibition of PDE8A1 (unknown origin) using FAM-cyclic-3',5'-AMP as substrate to inhibition of PDE4B1 (unknown origin) using FAM-cyclic-3',5'-AMP as substrate
[7] = Selectivity ratio for inhibition of PDE3B (unknown origin) using FAM-cyclic-3',5'-AMP as substrate to inhibition of PDE4D7 (unknown origin) using FAM-cyclic-3',5'-AMP as substrate
[8] = Selectivity ratio for inhibition of PDE7A (unknown origin) using FAM-cyclic-3',5'-AMP as substrate to inhibition of PDE4D7 (unknown origin) using FAM-cyclic-3',5'-AMP as substrate
[9] = test system: SH-SY5Y; assay: Protection against alcohol-induced cytotoxicity in human SH-SY5Y cells assessed as increase in cell viability at 0.25 to 1 uM preincubated with compound for 1 hrs followed by ethanol administration and measured after 24 hrs by CCK8 assay; format: functional, cell-based; details: dose 0.25-1 µM, time 25.0 hrs
[10] = Drug concentration in Sprague-Dawley rat plasma at 10 mg/kg, po administered as single dose for 1 hrs by LC-MS analysis; format: ADME, organism-based
[11] = Clearance in Sprague-Dawley rat at 2 mg/kg, iv measured after 24 hrs by LC-MS analysis; format: ADME, organism-based; details: in vivo
[12] = Half-life in Sprague-Dawley rat at 10 mg/kg, po measured after 24 hrs by LC-MS analysis; format: ADME, organism-based; details: in vivo
[13] = Cmax in Sprague-Dawley rat at 10 mg/kg, po measured after 24 hrs by LC-MS analysis; format: ADME, organism-based; details: in vivo
[14] = Toxicity in ketamine/xylazine-induced anesthetic C57BL/6J mouse model assessed as emetogenic potential by measuring reduction in anesthesia duration at 1 to 5 mg/kg, po preadministered with compound for 15 mins followed by ketamine/xylazine administration; format: organism-based; details: in vivo, 0.25 h, dose 1-5 mg/kg
[15] = test system: Mus musculus; assay: Protection against alcohol use disorder in C57BL/6J mouse model assessed as decrease in alcohol intake at 1 to 2.5 mg/kg, po pre-trained with alcohol and water for 42 days with subsequent compound addition on day 22 and measured after 3 weeks by two-bottle choice test; format: functional, organism-based; details: dose 1-2.5 mg/kg
[16] = test system: Mus musculus; assay: Protection against alcohol exposure-induced anxiety like behavior in C57BL/6J mouse model assessed as distance travelled at 1 to 2.5 mg/kg, po pre-trained with alcohol and water for 42 days with subsequent compound addition from day 22 to day 42 followed by 3.5 hrs of darkness and compound administration for 30 mins followed by water replacement with alcohol for 4 hrs and measured 24 hrs after alcohol withdrawal by open field test; format: functional, organism-based; details: dose 1-2.5 mg/kg
[17] = test system: Mus musculus; assay: Protection against alcohol exposure-induced anxiety like behavior in C57BL/6J mouse model assessed as increase in center time at 1 to 2.5 mg/kg, po pre-trained with alcohol and water for 42 days with subsequent compound addition from day 22 to day 42 followed by 3.5 hrs of darkness and compound administration for 30 mins followed by water replacement with alcohol for 4 hrs and measured 24 hrs after alcohol withdrawal by open field test; format: functional, organism-based; details: dose 1-2.5 mg/kg
[18] = test system: Mus musculus; assay: Protection against alcohol-induced motor impairment in C57BL/6J mouse model assessed as short recovery time by measuring latency to falling off at 2.5 mg/kg, po preadministered with compound every 24 hrs for 3 times followed by alcohol administration 30 mins post last dose and further treated with compound for 3 days followed by alcohol administration 30 mins post last dose and measured at 2 to 20 mins by rotarod test; format: functional, organism-based; details: time 8702-8720 min
[19] = test system: Mus musculus; assay: Protection against alcoholic liver disease in NIAAA C57BL/6J mouse model assessed as decrease in serum ALT level at 1 to 2.5 mg/kg, po preadministered with 1 to 4 % of alcohol for 10 days with subsequent compound addition from day 6 to 11 and further administered with 31.25 % alcohol on day 11 and measured after 9 hrs by absorbance based plate analyzer; format: functional, organism-based; details: dose 1-2.5 mg/kg, time 5.0 day
[20] = test system: Mus musculus; assay: Protection against alcoholic liver disease in NIAAA C57BL/6J mouse model assessed as improvement of steatosis at 1 to 2.5 mg/kg, po preadministered with 1 to 4 % of alcohol for 10 days with subsequent compound addition from day 6 to 11 and further administered with 31.25 % alcohol on day 11 and measured after 9 hrs by H&E staining based light microscopic analysis; format: functional, organism-based; details: dose 1-2.5 mg/kg, time 5.0 day
[21] = test system: Mus musculus; assay: Protection against alcoholic liver disease in NIAAA C57BL/6J mouse model assessed as improvement of liver injury at 1 to 2.5 mg/kg, po preadministered with 1 to 4 % of alcohol for 10 days with subsequent compound addition from day 6 to 11 and further administered with 31.25 % alcohol on day 11 and measured after 9 hrs by Oil Red O staining based light microscopic analysis; format: functional, organism-based; details: dose 1-2.5 mg/kg, time 5.0 day
[22] = test system: Mus musculus; assay: Protection against alcoholic liver disease in NIAAA C57BL/6J mouse model assessed as improvement of steatosis at 1 to 2.5 mg/kg, po preadministered with 1 to 4 % of alcohol for 10 days with subsequent compound addition from day 6 to 11 and further administered with 31.25 % alcohol on day 11 and measured after 9 hrs by Oil Red O staining based light microscopic analysis; format: functional, organism-based; details: dose 1-2.5 mg/kg, time 5.0 day
[23] = test system: Mus musculus; assay: Protection against alcoholic liver disease in NIAAA C57BL/6J mouse model assessed as reduction in serum TNF-alpha level at 1 to 2.5 mg/kg, po preadministered with 1 to 4 % of alcohol for 10 days with subsequent compound addition from day 6 to 11 and further administered with 31.25 % alcohol on day 11 and measured after 9 hrs by ELISA; format: functional, organism-based; details: dose 1-2.5 mg/kg, time 5.0 day
[24] = test system: Mus musculus; assay: Protection against alcoholic liver disease in NIAAA C57BL/6J mouse model assessed as reduction in liver TNF-alpha mRNA level at 1 to 2.5 mg/kg, po preadministered with 1 to 4 % of alcohol for 10 days with subsequent compound addition from day 6 to 11 and further administered with 31.25 % alcohol on day 11 and measured after 9 hrs by RT-qPCR analysis; format: functional, organism-based; details: dose 1-2.5 mg/kg, time 5.0 day
[25] = test system: Mus musculus; assay: Protection against alcoholic liver disease in NIAAA C57BL/6J mouse model assessed as reduction in liver IL-1beta mRNA level at 1 to 2.5 mg/kg, po preadministered with 1 to 4 % of alcohol for 10 days with subsequent compound addition from day 6 to 11 and further administered with 31.25 % alcohol on day 11 and measured after 9 hrs by RT-qPCR analysis; format: functional, organism-based; details: dose 1-2.5 mg/kg, time 5.0 day

T1 sequence (Q08499 whole entry): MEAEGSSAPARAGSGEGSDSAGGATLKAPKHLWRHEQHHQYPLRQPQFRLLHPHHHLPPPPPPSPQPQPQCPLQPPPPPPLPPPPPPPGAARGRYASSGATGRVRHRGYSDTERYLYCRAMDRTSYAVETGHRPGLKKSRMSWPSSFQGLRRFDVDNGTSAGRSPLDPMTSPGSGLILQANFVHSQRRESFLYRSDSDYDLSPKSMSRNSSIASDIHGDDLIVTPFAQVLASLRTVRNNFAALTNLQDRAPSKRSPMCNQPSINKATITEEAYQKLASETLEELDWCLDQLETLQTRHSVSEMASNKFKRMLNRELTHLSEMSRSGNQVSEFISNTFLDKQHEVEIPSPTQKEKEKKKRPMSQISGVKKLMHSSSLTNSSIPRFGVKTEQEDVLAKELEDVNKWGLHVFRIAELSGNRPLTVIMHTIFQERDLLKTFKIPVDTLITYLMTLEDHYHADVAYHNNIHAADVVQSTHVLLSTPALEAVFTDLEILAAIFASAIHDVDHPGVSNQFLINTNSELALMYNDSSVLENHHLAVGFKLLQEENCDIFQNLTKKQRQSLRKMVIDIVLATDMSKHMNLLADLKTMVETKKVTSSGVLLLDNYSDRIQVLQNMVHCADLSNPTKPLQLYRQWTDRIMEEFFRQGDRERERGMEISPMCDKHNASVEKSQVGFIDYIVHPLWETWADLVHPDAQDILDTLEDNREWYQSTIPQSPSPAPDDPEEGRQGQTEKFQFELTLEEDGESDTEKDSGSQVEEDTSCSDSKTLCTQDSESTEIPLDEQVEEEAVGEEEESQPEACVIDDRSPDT
Sequence of 3',5'-cyclic-AMP phosphodiesterase 4B (Q07343 whole entry): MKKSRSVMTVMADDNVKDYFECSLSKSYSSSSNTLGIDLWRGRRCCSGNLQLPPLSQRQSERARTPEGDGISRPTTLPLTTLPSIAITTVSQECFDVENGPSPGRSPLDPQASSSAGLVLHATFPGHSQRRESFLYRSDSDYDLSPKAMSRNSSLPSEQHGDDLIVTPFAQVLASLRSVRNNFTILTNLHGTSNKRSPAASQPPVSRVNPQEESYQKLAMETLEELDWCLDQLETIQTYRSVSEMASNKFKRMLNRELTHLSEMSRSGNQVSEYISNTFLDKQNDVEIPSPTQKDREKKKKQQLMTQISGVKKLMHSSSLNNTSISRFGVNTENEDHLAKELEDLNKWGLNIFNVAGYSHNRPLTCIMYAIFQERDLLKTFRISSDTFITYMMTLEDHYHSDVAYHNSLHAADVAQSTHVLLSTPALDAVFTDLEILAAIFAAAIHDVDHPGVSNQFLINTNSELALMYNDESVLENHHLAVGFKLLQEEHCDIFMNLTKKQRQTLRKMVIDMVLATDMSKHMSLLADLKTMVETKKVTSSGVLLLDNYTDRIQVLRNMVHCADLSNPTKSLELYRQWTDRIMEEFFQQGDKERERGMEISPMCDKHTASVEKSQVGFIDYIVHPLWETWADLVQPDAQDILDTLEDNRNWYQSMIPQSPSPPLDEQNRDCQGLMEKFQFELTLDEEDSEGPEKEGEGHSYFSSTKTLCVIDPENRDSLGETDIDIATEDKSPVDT

In the case of `CCOc1nc(Cl)cc2c1cnn2CCCC(=O)O`, the IC50 [1] is reported as 31 nM, the inhibition [2] is reported as 72% and the inhibition [3] is reported as 21%. For the same compound, the Stability [4] was “Stable”, the Activity [5] was “Non-Toxic” and the Selectivity ratio [6] was > 267. The Selectivity ratio [7] was > 267, the Selectivity ratio [8] was > 267 and the Activity [9] was “Active”. For the same compound, the concentration at 1 h [10] was 19500 ng/mL, the clearance [11] was 0.211 mL/min/kg and the half-life [12] was 558 min. The Cmax [13] was 43300 ng/mL, the Activity [14] was “Non-Toxic” and the Activity [15] was “Active”. For the same compound, the Activity [16] was “Active”, the Activity [17] was “Active” and the Activity [18] was “Active”. The Activity [19] was “Active”, the Activity [20] was “Active” and the Activity [21] was “Active”. For the same compound, the Activity [22] was “Active”, the Activity [23] was “Active” and the Activity [24] was “Active”. For the same compound, the Activity [25] was “Active”.
